Data on nine compounds can be found in ChEMBL document CHEMBL5465560, “Selectivity Literature for EUbOPEN Chemogenomic Library” (2024).

Assay [1] concerns the target Cannabinoid receptor 1 (Homo sapiens, UniProt P21554). The assay is described as follows: Selectivity interaction (Panel of non-epigenetic targets (kinases, GPCRs, ion channels, and transporters, Eurofins) ) EUB0000271b CNR1. The settings on record: at 1 µM.
Assay [2] has as its target Dual specificity protein kinase CLK1 (Homo sapiens, UniProt P49759). The conditions noted are these: at 10 µM.
Assay [3] addresses T1, Activin receptor type-1B (Homo sapiens) (UniProt P36896).
T1 sequence (whole entry): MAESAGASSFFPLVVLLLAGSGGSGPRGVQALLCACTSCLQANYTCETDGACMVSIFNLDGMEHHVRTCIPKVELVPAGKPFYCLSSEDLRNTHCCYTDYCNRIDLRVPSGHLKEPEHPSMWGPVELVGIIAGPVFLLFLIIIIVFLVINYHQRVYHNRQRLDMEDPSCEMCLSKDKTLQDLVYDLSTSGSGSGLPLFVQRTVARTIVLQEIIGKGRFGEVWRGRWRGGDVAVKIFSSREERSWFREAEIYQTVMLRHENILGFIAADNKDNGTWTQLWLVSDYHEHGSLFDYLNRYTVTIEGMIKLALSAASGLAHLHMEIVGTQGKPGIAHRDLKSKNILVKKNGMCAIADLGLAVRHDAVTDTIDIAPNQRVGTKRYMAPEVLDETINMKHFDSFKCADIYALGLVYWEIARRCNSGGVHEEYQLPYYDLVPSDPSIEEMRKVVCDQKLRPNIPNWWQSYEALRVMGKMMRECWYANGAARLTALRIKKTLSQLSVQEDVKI
The settings on record: at 10 µM.

Assay [4] relates to Mast/stem cell growth factor receptor Kit (Homo sapiens), P10721 [V559D,V654A]. The conditions noted are these: at 10 µM.
Assay [5] deals with Serine/threonine-protein kinase Chk2 (Homo sapiens) (UniProt O96017). As to the kind of experiment: Selectivity interaction (KinomeScan (DiscoverX)) EUB0000666a CHEK2. The settings on record: at 10 µM.
In assay [6] the target is Serine/threonine-protein kinase 32B (Homo sapiens) (UniProt Q9NY57). The assay is described as follows: Selectivity interaction (KinomeScan (DiscoverX)) EUB0000229b STK32B. The settings on record: at 10 µM.
Chain of Serine/threonine-protein kinase 32B (Homo sapiens) (Q9NY57 whole entry): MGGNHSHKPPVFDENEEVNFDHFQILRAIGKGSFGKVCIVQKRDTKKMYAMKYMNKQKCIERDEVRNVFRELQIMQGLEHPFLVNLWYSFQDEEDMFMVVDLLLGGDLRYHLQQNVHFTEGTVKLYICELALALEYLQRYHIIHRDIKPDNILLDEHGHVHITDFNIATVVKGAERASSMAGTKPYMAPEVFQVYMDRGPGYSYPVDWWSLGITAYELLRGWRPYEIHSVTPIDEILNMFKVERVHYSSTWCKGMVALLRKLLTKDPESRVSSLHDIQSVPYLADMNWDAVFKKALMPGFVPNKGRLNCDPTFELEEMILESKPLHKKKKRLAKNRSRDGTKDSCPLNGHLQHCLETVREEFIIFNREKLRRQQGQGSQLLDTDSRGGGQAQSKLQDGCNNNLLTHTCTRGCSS
The target in assay [7] is SRSF protein kinase 2 (Homo sapiens) (UniProt P78362). The assay is described as follows: Selectivity interaction (KinomeScan (DiscoverX)) EUB0000655a SRPK2. The settings on record: at 10 µM.
Chain of SRSF protein kinase 2 (Homo sapiens) (P78362 whole entry, looked up): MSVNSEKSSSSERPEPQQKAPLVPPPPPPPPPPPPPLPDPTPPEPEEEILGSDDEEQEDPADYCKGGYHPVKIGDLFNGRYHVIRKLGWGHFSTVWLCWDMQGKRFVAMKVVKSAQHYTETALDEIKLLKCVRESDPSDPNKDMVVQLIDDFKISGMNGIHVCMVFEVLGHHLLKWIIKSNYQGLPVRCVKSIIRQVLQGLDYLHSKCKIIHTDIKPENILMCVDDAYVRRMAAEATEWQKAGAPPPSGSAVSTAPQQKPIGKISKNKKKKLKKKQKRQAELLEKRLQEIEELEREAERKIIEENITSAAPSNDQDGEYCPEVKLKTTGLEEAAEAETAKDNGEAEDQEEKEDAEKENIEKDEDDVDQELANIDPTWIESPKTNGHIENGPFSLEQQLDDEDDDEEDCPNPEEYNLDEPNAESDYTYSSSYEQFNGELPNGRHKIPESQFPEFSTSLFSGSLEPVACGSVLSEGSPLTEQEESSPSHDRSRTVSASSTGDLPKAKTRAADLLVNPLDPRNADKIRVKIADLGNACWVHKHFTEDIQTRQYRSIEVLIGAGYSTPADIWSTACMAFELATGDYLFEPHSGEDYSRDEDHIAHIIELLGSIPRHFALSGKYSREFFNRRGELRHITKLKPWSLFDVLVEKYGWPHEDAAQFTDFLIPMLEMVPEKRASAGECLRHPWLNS
Assay [8] has as its target eIF-2-alpha kinase GCN2 (Homo sapiens) (UniProt Q9P2K8). The assay is described as follows: Selectivity interaction (ActivX KiNativ screen (ex vivo kinase selectivity in human PBMCs)) EUB0001619a EIF2AK4. It counts as cell-based. The settings on record: PBMC, at 1 µM.
Assay [9] has as its target T2, Dual specificity mitogen-activated protein kinase kinase 6 (Homo sapiens) (UniProt P52564).
T2 sequence (whole entry): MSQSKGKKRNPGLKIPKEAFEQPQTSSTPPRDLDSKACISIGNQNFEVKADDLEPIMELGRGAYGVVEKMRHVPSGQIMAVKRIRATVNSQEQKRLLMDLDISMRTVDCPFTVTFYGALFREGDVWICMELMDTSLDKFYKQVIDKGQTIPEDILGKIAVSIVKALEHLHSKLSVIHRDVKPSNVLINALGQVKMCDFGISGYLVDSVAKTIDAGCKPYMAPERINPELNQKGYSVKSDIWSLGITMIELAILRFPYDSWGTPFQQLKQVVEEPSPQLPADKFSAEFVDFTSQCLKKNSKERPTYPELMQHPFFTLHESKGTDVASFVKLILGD
As to the kind of experiment: Selectivity interaction (ActivX KiNativ screen (ex vivo kinase selectivity in human PBMCs)) EUB0001619a MAP2K6. It counts as cell-based. The conditions noted are these: PBMC, at 1 µM.

Assay [10] has as its target Tyrosine-protein kinase JAK1 (Homo sapiens, UniProt P23458). As to the kind of experiment: Selectivity interaction (Kinase panel (33PanQinase(R) Activity Assay)) EUB0000877a JAK1.
Assay [11] addresses T3, Beta-adrenergic receptor kinase 1 (Homo sapiens) (UniProt P25098).
T3 sequence (whole entry): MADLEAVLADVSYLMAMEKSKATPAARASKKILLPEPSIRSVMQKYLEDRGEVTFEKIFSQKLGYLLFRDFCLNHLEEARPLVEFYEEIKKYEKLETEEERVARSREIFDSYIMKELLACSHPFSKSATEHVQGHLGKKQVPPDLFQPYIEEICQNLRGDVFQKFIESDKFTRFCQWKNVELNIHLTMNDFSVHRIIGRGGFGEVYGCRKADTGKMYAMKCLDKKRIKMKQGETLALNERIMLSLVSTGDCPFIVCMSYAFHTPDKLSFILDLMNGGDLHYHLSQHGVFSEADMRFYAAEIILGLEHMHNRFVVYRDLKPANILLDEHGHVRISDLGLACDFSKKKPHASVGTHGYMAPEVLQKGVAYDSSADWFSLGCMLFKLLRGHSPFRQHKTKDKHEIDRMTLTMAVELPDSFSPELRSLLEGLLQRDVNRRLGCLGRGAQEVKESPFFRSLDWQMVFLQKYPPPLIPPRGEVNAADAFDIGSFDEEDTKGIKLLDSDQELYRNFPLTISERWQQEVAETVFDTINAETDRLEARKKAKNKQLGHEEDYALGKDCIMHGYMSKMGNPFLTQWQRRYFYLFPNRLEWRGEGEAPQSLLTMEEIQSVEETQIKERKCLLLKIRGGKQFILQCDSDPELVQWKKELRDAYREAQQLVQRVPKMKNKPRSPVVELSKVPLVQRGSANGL
The assay is described as follows: Selectivity interaction (KinomeScan (DiscoverX)) EUB0001049a ADRBK1. The settings on record: at 1 µM.

For assay [12], the target named is Dual specificity testis-specific protein kinase 1 (Homo sapiens) (UniProt Q15569). The assay is described as follows: Selectivity interaction (KinomeScan (DiscoverX)) EUB0001049a TESK1. The conditions noted are these: at 1 µM.
Chain of Dual specificity testis-specific protein kinase 1 (Homo sapiens) (Q15569 whole entry, looked up): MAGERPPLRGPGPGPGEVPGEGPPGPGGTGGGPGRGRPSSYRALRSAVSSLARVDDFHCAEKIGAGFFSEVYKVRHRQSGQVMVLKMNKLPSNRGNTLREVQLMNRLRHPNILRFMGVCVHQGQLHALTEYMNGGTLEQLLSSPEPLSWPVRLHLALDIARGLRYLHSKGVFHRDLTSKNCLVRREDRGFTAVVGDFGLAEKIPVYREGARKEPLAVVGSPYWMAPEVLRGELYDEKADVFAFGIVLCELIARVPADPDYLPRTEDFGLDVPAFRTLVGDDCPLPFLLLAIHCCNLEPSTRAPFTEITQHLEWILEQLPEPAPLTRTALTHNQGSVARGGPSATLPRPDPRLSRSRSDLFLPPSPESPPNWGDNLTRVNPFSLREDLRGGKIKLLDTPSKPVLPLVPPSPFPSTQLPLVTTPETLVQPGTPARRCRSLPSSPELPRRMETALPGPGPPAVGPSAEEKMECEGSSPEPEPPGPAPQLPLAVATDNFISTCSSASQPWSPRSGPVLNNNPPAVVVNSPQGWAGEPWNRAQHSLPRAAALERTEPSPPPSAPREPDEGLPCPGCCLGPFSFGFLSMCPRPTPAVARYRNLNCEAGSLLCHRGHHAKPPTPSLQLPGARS
In assay [13] the target is Rho-associated protein kinase 2 (Homo sapiens, UniProt O75116). As to the kind of experiment: Selectivity interaction (KinomeScan (DiscoverX)) EUB0001049a ROCK2. The settings on record: at 1 µM.
Chain of Rho-associated protein kinase 2 (O75116 whole entry, looked up): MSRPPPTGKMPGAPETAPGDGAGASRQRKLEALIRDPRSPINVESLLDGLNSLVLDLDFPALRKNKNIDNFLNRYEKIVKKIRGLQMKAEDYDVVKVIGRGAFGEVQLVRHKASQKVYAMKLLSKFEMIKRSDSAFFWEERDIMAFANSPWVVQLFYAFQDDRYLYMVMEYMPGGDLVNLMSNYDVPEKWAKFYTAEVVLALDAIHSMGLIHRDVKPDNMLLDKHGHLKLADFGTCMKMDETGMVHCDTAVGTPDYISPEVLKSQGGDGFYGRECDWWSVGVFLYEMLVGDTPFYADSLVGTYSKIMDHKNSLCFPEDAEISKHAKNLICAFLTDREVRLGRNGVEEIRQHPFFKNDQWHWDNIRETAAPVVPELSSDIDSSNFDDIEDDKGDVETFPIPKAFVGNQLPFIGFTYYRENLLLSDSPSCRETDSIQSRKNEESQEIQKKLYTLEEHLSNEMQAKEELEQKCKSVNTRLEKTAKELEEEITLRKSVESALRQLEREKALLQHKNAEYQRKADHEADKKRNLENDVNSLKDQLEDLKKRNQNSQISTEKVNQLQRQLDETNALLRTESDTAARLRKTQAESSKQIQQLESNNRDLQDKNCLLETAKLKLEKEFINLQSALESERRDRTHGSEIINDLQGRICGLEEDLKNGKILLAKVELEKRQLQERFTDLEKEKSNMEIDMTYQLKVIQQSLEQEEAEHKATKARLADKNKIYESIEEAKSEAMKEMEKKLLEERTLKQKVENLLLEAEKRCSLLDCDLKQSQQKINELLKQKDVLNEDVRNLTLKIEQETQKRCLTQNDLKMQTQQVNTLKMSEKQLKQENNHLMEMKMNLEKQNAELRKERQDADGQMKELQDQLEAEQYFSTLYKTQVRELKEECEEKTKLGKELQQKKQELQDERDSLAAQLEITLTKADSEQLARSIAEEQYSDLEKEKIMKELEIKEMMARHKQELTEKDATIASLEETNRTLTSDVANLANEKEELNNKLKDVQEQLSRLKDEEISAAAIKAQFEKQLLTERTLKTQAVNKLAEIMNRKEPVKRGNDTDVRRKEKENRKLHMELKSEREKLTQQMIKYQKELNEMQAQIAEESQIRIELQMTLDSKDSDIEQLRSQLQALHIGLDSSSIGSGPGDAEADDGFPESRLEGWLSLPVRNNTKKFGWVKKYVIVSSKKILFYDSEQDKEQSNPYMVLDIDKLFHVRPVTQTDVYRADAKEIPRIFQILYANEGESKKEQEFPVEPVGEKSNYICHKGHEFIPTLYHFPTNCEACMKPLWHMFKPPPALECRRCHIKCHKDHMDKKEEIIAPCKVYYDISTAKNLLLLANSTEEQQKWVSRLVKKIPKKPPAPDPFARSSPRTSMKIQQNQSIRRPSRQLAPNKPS
Assay [14] concerns Tyrosine-protein kinase ABL1 (Homo sapiens), P00519 [T315I]. As to the kind of experiment: Selectivity interaction (KinomeScan (DiscoverX)) EUB0000045b ABL1. The conditions noted are these: at 1 µM.

Chain of Cannabinoid receptor 1 (P21554 whole entry): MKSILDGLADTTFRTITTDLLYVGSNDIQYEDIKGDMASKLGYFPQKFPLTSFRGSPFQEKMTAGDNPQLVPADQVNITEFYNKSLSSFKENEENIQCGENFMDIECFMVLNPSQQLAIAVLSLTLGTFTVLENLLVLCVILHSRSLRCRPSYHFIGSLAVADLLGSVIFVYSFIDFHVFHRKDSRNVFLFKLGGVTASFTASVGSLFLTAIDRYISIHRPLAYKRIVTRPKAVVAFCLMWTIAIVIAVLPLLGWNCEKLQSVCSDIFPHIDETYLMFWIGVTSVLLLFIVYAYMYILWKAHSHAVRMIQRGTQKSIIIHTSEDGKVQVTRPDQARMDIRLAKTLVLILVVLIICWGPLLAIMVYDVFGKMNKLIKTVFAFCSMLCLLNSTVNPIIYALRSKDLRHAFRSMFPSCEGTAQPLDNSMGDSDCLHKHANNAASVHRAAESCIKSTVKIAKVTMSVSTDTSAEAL
Chain of Tyrosine-protein kinase JAK1 (P23458 whole entry): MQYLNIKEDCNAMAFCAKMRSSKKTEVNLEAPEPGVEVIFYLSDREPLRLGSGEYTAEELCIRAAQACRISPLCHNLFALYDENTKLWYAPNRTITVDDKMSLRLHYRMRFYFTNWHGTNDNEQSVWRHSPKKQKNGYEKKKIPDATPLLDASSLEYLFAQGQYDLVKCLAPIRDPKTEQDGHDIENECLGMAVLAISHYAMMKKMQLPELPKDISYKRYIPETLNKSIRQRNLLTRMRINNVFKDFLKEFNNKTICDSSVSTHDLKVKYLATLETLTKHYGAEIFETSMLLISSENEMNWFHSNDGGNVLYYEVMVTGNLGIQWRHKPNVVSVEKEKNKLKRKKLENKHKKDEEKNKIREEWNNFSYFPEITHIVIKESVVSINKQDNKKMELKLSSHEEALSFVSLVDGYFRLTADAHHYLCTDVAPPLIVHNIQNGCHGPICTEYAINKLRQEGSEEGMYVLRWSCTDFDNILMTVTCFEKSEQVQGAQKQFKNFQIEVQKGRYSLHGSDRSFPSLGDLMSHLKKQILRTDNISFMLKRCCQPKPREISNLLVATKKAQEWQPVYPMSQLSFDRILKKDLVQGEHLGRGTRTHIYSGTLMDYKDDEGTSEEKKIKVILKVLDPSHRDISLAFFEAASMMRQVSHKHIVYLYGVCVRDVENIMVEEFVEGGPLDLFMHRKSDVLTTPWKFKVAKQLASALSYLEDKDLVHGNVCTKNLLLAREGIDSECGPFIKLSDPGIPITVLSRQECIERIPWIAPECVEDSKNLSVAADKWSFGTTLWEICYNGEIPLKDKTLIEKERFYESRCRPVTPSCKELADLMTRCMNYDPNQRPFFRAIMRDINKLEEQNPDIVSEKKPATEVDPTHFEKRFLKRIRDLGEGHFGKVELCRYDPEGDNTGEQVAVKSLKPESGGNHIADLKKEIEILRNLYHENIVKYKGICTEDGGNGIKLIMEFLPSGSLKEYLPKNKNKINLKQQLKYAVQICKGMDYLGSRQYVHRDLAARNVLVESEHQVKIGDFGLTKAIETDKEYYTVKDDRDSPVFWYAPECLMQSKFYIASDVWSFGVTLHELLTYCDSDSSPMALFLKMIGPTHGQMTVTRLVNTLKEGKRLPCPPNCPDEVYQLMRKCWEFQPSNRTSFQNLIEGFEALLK

On to `Cc1cc(C)cc([C@@H]2c3cc(C)ccc3NC(=O)CN2C(=O)c2ccc(Br)s2)c1`, for which the % of inhibition in assay [1] is -20%.
As for `Cc1cc([C@@H](C)Nc2ccccc2C(=O)O)c2nc(N3CCOCC3)cc(=O)n2c1` [AZD-6482], the figures for the % of control in [2], in [3] and in assay [4] were 74%, 93% and 96%, respectively.
As to `O=C(NOC[C@H](O)CO)c1ccc(F)c(F)c1Nc1ccc(I)cc1F`, in assay [5], the % of control was 86%.
Regarding `COc1cc(N(C)c2ccnc3ccc(C(F)(F)F)cc23)cc(OC)c1OC`, the % binding in assay [6] came to 100%.
`CN(C)CCOc1ccc(-c2nc(-c3ccncc3)c(-c3ccc4c(c3)CC/C4=N\O)[nH]2)cc1` returned a % of control in [7] of 100%.
In the case of `N#Cc1cccc(-c2c[nH]c3ncnc(N4CCOCC4)c23)c1`, the % of inhibition in assay [8] was 22%; in assay [9], 9%.
For the compound `CCC(=O)N1CC[C@H](Nc2ncnc3c2CN(c2cnc(OC)c(C(F)(F)F)c2)CC3)C1` [LENIOLISIB], the IC50 in assay [10] was more than 10 µM.
Turning to `COc1cc(Nc2nc(C)cc(-c3cnn4nc(OC)ccc34)n2)cc(C(F)(F)F)c1`, the % of control in assay [11] amounted to 100%; in assay [12], 73%; in assay [13] it was 100%.
As to `C=CC(=O)Nc1cc(-n2c(=O)ccc3cnc4ccc(-c5ccc(NS(C)(=O)=O)cc5)cc4c32)ccc1C`, the % of control in assay [14] amounted to 87%.

The IC50 is the point on the concentration scale where inhibition reaches its midpoint. Higher therefore signals weaker potency in that assay.
